# Assays:
# Experiment in all cases: relative viability (nuclei count vs DMSO), 5 days (fraction); higher = more cells survive
# Dinaciclib + Palbociclib = compound: CCc1cnn2c(NCc3ccc[n+]([O-])c3)cc(N3CCCC[C@H]3CCO)nc12 [Dinaciclib] + CC(=O)c1c(C)c2cnc(Nc3ccc(N4CCNCC4)cn3)nc2n(C2CCCC2)c1=O [Palbociclib] (partner 0.5 µM)
# Procedure, shortened: (§1)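 Relative viability was taken as the ratio of nuclei in treated wells to nuclei in vehicle wells. Lung cancer cell lines in 1536-well plates received compounds by pin tool one day after seeding, either one drug alone or a fixed anchor-drug dose plus five library-drug doses (not always all listed) in √10 steps. Nuclei were counted on 4× images after 5 days of treatment, and values are medians of duplicate plates.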
# Dinaciclib + Dasatinib = compound: CCc1cnn2c(NCc3ccc[n+]([O-])c3)cc(N3CCCC[C@H]3CCO)nc12 [Dinaciclib] + Cc1nc(Nc2ncc(C(=O)Nc3c(C)cccc3Cl)s2)cc(N2CCN(CCO)CC2)n1 [Dasatinib] (partner 0.075 µM)
# Procedure, shortened: as §1
# Dinaciclib + AZD7762 = compound: CCc1cnn2c(NCc3ccc[n+]([O-])c3)cc(N3CCCC[C@H]3CCO)nc12 [Dinaciclib] + NC(=O)Nc1cc(-c2cccc(F)c2)sc1C(=O)N[C@H]1CCCNC1 [AZD7762] (partner 0.2 µM)
# Procedure, shortened: as §1
# Dinaciclib + Trametinib = compound: CCc1cnn2c(NCc3ccc[n+]([O-])c3)cc(N3CCCC[C@H]3CCO)nc12 [Dinaciclib] + CC(=O)Nc1cccc(-n2c(=O)n(C3CC3)c(=O)c3c(Nc4ccc(I)cc4F)n(C)c(=O)c(C)c32)c1 [Trametinib] (partner 0.02 µM)
# Procedure, shortened: as §1
# Dinaciclib + Tozasertib = compound: CCc1cnn2c(NCc3ccc[n+]([O-])c3)cc(N3CCCC[C@H]3CCO)nc12 [Dinaciclib] + Cc1cc(Nc2cc(N3CCN(C)CC3)nc(Sc3ccc(NC(=O)C4CC4)cc3)n2)n[nH]1 [Tozasertib] (partner 0.1 µM)
# Procedure, shortened: as §1
Cell Line,relative viability (Dinaciclib + Palbociclib; first compound 0.009487 µM),relative viability (Dinaciclib + Palbociclib; first compound 0.03 µM),relative viability (Dinaciclib + Palbociclib; first compound 0.09487 µM),relative viability (Dinaciclib + Palbociclib; first compound 0.3 µM),relative viability (Dinaciclib + Dasatinib; first compound 0.009487 µM),relative viability (Dinaciclib + Dasatinib; first compound 0.03 µM),relative viability (Dinaciclib + Dasatinib; first compound 0.09487 µM),relative viability (Dinaciclib + Dasatinib; first compound 0.3 µM),relative viability (Dinaciclib + AZD7762; first compound 0.009487 µM),relative viability (Dinaciclib + AZD7762; first compound 0.03 µM),relative viability (Dinaciclib + AZD7762; first compound 0.09487 µM),relative viability (Dinaciclib + AZD7762; first compound 0.3 µM),relative viability (Dinaciclib + Trametinib; first compound 0.009487 µM),relative viability (Dinaciclib + Trametinib; first compound 0.03 µM),relative viability (Dinaciclib + Trametinib; first compound 0.09487 µM),relative viability (Dinaciclib + Trametinib; first compound 0.3 µM),relative viability (Dinaciclib + Tozasertib; first compound 0.009487 µM),relative viability (Dinaciclib + Tozasertib; first compound 0.03 µM),relative viability (Dinaciclib + Tozasertib; first compound 0.09487 µM),relative viability (Dinaciclib + Tozasertib; first compound 0.3 µM)
HCC-78,0.432,0.374,0.253,0.3,0.379,0.181,0.148,0.162,0.941,0.637,0.226,0.209,0.631,0.402,0.229,0.183,0.345,0.282,0.144,0.138
NCI-H1975,0.578,0.188,0.102,0.105,0.483,0.263,0.0967,0.0711,0.957,0.421,0.22,0.215,0.343,0.187,0.134,0.0985,0.927,0.416,0.082,0.071
CAL-12T,0.121,0.137,0.108,0.128,0.11,0.0662,0.082,0.0795,0.565,0.187,0.14,0.183,0.187,0.0992,0.122,0.11,0.166,0.0862,0.0939,0.0838
NCI-H2126,0.333,0.3,0.207,0.198,0.54,0.187,0.212,0.187,1.13,0.899,0.29,0.198,0.53,0.41,0.165,0.175,0.799,0.218,0.222,0.19
